Assay results as given in paper PMC7662226, “Discovery of Novel Indolealkylpiperazine Derivatives as Potent 5-HT1A Receptor Agonists for the Potential Future Treatment of Depression” (Molecules, 2020).
One block for each compound: values may come before it.

Legend:
Assay type in all cases: cell-based
[1] = target: T1, human 5-HT1AR (Homo sapiens, UniProt P08908); assay: Ultra Lance cAMP assay, 5-HT1AR; settings: agonistic functional activity, human 5-HT1AR expressed by HEK-293 cells; NA: no activity
T1 construct: expressed in transfected cells; host or cells: HEK-293
T1 sequence (P08908 1-422): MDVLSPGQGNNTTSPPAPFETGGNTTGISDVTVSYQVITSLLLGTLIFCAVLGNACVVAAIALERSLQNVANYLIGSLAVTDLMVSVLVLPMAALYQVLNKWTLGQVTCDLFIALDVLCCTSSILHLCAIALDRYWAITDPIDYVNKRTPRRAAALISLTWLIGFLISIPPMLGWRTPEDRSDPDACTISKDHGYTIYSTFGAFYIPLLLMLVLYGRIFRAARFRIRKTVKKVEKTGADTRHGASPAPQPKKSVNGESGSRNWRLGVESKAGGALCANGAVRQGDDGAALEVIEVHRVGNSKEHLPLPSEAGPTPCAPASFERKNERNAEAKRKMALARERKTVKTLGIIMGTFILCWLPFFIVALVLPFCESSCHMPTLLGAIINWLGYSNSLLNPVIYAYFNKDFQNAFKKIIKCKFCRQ
Method: (§1) 1.2 Biological Evaluation
(§2) 1.2.1. Ultra Lance cAMP assay
(§3) The Ultra Lance cAMP assay was performed to evaluate the function of synthesized compounds to D2R and 5-HT1AR with human D2R and 5-HT1AR expressed by HEK-293 cells.
(§4) […] The IC50 values were calculated by nonlinear regression using a sigmoidal function.

[2] = target: T2, human 5-HT2AR (Homo sapiens, UniProt P28223); assay: Fluorometric Imaging Plate Reader (FLIPR) assay, 5-HT2AR; settings: functional activity, calcium flux, human 5-HT2AR expressed by CHO-K1 cells; NA: no activity
T2 construct: expressed in transfected cells; host or cells: CHO-K1
T2 sequence (P28223 whole entry): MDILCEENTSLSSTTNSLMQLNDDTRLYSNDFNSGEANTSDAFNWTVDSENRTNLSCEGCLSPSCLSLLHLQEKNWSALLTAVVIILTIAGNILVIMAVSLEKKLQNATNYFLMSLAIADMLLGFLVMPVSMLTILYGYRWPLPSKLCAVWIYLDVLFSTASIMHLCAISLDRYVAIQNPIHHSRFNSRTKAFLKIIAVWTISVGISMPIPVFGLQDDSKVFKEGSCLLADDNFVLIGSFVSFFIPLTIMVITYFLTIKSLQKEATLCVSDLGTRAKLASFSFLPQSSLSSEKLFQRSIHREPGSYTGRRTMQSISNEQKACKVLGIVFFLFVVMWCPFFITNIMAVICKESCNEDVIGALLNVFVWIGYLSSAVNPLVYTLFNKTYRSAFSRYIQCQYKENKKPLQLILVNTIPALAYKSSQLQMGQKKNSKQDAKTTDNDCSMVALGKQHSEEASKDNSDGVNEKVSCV
Method: 1.2.2. Fluorometric Imaging Plate Reader (FLIPR) assay
The FLIPR assay was performed to evaluate the function of synthesized compounds to 5-HT2AR with human 5-HT2AR expressed by CHO-K1 cells. Reference compound for 5-HT2AR was […]
[…] After 15 min add 22.5 µl /well of inducer and calcium flux signal is measured. The IC50 values were calculated by nonlinear regression using a sigmoidal function.

[3] = target: T3, human D2R (Homo sapiens, UniProt P14416); assay: Ultra Lance cAMP assay, D2R; settings: functional activity, human D2R expressed by HEK-293 cells; NA: no activity
T3 construct: expressed in transfected cells; host or cells: HEK-293
T3 sequence (P14416 whole entry): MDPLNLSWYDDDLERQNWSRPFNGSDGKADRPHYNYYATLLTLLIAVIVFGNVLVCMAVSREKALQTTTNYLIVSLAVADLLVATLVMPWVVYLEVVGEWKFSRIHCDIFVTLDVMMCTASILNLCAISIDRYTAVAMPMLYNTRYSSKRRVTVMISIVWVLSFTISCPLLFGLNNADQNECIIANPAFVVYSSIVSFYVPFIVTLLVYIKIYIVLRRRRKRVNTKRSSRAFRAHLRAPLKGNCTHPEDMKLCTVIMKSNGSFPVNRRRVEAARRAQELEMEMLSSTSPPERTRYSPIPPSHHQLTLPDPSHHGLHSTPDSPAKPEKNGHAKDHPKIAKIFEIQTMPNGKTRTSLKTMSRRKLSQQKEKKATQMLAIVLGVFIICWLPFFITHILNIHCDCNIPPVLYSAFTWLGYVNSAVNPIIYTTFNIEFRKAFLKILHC
Method: as §1, §2, §3, §4

Structure (SMILES): CNS(=O)(=O)c1ccc(OCC(C)C)c(C(=O)N2CCN(CCCc3c[nH]c4ccc(C#N)cc34)CC2)c1 [Compound 13h]
EC50 [1]: 5.67 nM | IC50 [2]: 567 nM

EC50 [1]: 22.8 nM
Structure (SMILES): CC(C)Oc1ccc(S(=O)(=O)NCC2CC2)cc1C(=O)N1CCN(CCCc2c[nH]c3ccc(C#N)cc23)CC1 [Compound 13o, 3-(4-(3-(5-cyano-1H-indol-3-yl)propyl)piperazine-1-carbonyl)-N-(cyclopropylmethyl)-4-isopropoxybenzenesulfonamide]

5-HT1AR EC50 [1]: completely lose activity
Structure (SMILES): CNS(=O)(=O)c1ccc(OC(C)C)c(C(=O)N2CCN(CCCc3c[nH]c4ccc(C#N)cc34)CC2)c1 [Compound 13j]

Structure (SMILES): CNS(=O)(=O)c1ccc(OCC2COC2)c(C(=O)N2CCN(CCCc3c[nH]c4ccc(C#N)cc34)CC2)c1 [Compound 13i]
EC50 [1]: 400 nM | IC50 [2]: 4190 nM

Structure (SMILES): CC(C)COc1ccc(S(=O)(=O)NCC2CC2)cc1C(=O)N1CCN(CCCc2c[nH]c3ccc(C#N)cc23)CC1 [Compound 13m]
EC50 [1]: 1.01 nM | IC50 [3]: > 5000 nM | IC50 [2]: 1530 nM

Structure (SMILES): N#Cc1ccc2[nH]cc(CCCN3CCN(C(=O)c4cc(S(=O)(=O)NCC5CC5)ccc4OCC4CC4)CC3)c2c1 [Compound 13g]
EC50 [1]: 5.35 nM | IC50 [3]: 4310 nM | IC50 [2]: 2280 nM

EC50 [1]: 175 nM
Structure (SMILES): N#Cc1ccc2[nH]cc(CCCN3CCN(C(=O)c4cc(S(=O)(=O)NCC5CC5)ccc4OC4COC4)CC3)c2c1 [Compound 13q, 3-(4-(3-(5-cyano-1H-indol-3-yl)propyl)piperazine-1-carbonyl)-N-(cyclopropylmethyl)-4-(oxetan-3-yloxy)benzenesulfonamide]

Structure (SMILES): CCOc1ccc(S(=O)(=O)NCC2CC2)cc1C(=O)N1CCN(CCCc2c[nH]c3ccc(C#N)cc23)CC1 [Compound 13p, 3-(4-(3-(5-cyano-1H-indol-3-yl)propyl)piperazine-1-carbonyl)-N-(cyclopropylmethyl)-4-ethoxybenzenesulfonamide]
EC50 [1]: 48.2 nM | IC50 [2]: 4730 nM

Structure (SMILES): CCS(=O)(=O)c1ccc(OCC2CC2)c(C(=O)N2CCN(CCCc3c[nH]c4ccc(C#N)cc34)CC2)c1 [Compound 13e]
EC50 [1]: 49.2 nM | IC50 [3]: > 5000 nM | IC50 [2]: 1290 nM

Structure (SMILES): CCOc1ccc(S(=O)(=O)NC)cc1C(=O)N1CCN(CCCc2c[nH]c3ccc(C#N)cc23)CC1 [Compound 13k]
EC50 [1]: 77.5 nM | IC50 [2]: 1780 nM

EC50 [1]: 524 nM
Structure (SMILES): CNS(=O)(=O)c1ccc(OC2COC2)c(C(=O)N2CCN(CCCc3c[nH]c4ccc(C#N)cc34)CC2)c1 [Compound 13l]

Structure (SMILES): CNS(=O)(=O)c1ccc(OCC2CC2)c(C(=O)N2CCN(CCCc3c[nH]c4ccc(C#N)cc34)CC2)c1 [Compound 13f]
EC50 [1]: 23.6 nM | IC50 [2]: 1100 nM

Structure (SMILES): CS(=O)(=O)c1ccc(F)c(C(=O)N2CCN(CCCc3c[nH]c4ccc(C#N)cc34)CC2)c1 [Compound 13a]
EC50 [1]: 168 nM | IC50 [2]: > 5000 nM

EC50 [1]: 990 nM
Structure (SMILES): CS(=O)(=O)c1ccc(N2CCOCC2)c(C(=O)N2CCN(CCCc3c[nH]c4ccc(C#N)cc34)CC2)c1 [Compound 13b]

Structure (SMILES): CC(Oc1ccc(S(C)(=O)=O)cc1C(=O)N1CCN(CCCc2c[nH]c3ccc(C#N)cc23)CC1)C(F)(F)F (centres unmarked) [Compound 13c]
EC50 [1]: 197 nM | IC50 [2]: 1140 nM

Structure (SMILES): N#Cc1ccc2[nH]cc(CCCN3CCN(C(=O)c4cc(S(=O)(=O)NCC5CC5)ccc4OCC4COC4)CC3)c2c1 [Compound 13n]
EC50 [1]: 31.6 nM | IC50 [2]: > 5000 nM

Structure (SMILES): CS(=O)(=O)c1ccc(OCC2CC2)c(C(=O)N2CCN(CCCc3c[nH]c4ccc(C#N)cc34)CC2)c1 [Compound 13d]
EC50 [1]: 88 nM | IC50 [2]: 887 nM
